Counter-ions that a name gives are not always drawn. Like-named read-outs stand apart in the source and are kept apart here.
Assays:
[1] = Plasma drug concentration in healthy human subjects after single oral dose; type: in vivo; settings: for concentration at 2 h / concentration at 24 h: both sexes, human, plasma, read-out: Ave plasma Cmpd 2 conc; for concentration at 2 h: 2 hour post-dose
Method: The amount of free/unbound LOXL2 was evaluated in 8 mL plasma from six healthy subjects at pre-dose or at 2, 24 or 48 hours after a single oral dose of Compound 1-13A and in two healthy subjects dosed with placebo. On average, the amount of free/unbound LOXL2 was decreased by approximately 60% at 2 hours post-dosing in the subjects receiving 150 mg of Compound 1-13a (see FIG. 7).
Healthy human subjects (male and female) were dosed with compound 2 in solution. Blood samples were drawn at regular intervals and the plasma isolated and analyzed for compound 1-13a concentration as well as LOXL2 target engagement. Placebo data is the average of all the placebo subjects in the single dose study (n=10).

LOXL2 [2] = target: T1, LOXL2 (Homo sapiens, UniProt Q9Y4K0); test: LOXL2 target engagement in plasma of healthy volunteers after single oral dose (Western-based FG bead assay); type: in vivo; set-up: from tissue; host or cells: human plasma (donors / healthy volunteers)
T1 sequence (Q9Y4K0 26-774): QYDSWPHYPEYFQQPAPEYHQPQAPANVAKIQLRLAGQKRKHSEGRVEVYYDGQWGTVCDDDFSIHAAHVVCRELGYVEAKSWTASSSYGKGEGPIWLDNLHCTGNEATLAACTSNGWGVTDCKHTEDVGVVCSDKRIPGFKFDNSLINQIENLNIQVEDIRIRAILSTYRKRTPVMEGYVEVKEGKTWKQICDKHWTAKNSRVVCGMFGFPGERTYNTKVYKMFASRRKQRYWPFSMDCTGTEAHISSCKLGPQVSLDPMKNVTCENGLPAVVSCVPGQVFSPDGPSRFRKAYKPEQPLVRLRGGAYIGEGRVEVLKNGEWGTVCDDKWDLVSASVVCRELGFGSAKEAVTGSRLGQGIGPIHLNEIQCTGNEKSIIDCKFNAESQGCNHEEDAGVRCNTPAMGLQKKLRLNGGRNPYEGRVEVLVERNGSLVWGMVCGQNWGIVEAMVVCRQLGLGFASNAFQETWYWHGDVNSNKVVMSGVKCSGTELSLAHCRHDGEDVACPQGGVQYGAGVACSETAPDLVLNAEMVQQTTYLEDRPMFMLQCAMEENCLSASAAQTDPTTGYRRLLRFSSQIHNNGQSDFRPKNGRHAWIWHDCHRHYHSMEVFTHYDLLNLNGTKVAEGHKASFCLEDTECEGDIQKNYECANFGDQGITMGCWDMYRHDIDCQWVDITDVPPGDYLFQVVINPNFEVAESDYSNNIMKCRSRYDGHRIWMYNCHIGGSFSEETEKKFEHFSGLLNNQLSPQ
Method: Beads are resuspended to 10 mg/mL in Wash Buffer (20 mM Tris pH 8, 0.2% NP-40, 120 mM NaCl) and 1 mg beads (100 μL) are added to 1-10 mL of plasma, serum or other biological fluid containing LOXL2 and incubated at 37° C. for 0.5-2 hours with rotation. Beads are separated from plasma or other matrix using magnetic separation (for example, DynaMag™-15 Magnet) for 10 minutes at room temperature then the plasma/matrix carefully removed. The beads are resuspended in 1 mL Wash Buffer, vortexed and centrifuged at 4500×g for 5 minutes at room temperature to move all beads to the bottom of the tube. Beads are transferred to a 1.5 mL microfuge tube and washed 3 times with Wash Buffer using magnetic separation (for example, DynaMag™-2 Magnet). After the final wash, beads are resuspended in 40 μL of 1× BOLT® LDS Sample Buffer (Thermo Fisher, Waltham, Mass.) containing 1× BOLT® Sample Reducing Agent (Thermo Fisher, Waltham, Mass.) and incubated for 10 minutes at 90° C. Samples are centrifuged at 10,000×g for 1 minute then magnetically separated using a DynaMag™-2 Magnet for 2 minutes. 40 μL of each supernatant is loaded into one well of a 10 well 4-12% Bis-Tris Plus gel (Thermo Fisher, Waltham, Mass.) and the gels run for 45 minutes at 164 volts in 1×MES SDS Running Buffer (Thermo Fisher, Waltham, Mass.). Gels are transferred to nitrocellulose using iBlot (Thermo Fisher, Waltham, Mass.) according to the manufacturer's recommendation. Blots are incubated in Bullet Blocking One (Nacalai USA, Inc) for 5 minutes at room temperature then incubated overnight at 4° C. with an anti-LOXL2 antibody (for example, R&D Systems goat polyclonal) diluted in Signal Enhancer Solution 1 (Nacalai USA, Inc). Blots are rinsed quickly twice in PBS/0.1% tween-20 then washed 3 times for 10 minutes each in the PBS/tween solution. A secondary infrared dye (IRdye)-conjugated secondary antibody (LI-COR Biosciences, Lincoln, Neb.) diluted in Signal Enhancer 2 (Nacalai USA, Inc) is added to the blot and incubated for 45 minutes-1 hour at room temperature in the dark. Blots are washed as above with PBS/tween then rinsed in PBS before imaging with a LI-COR Odyssey (LI-COR, Lincoln, Neb.).
Healthy human subjects (male and female) were dosed with compound 2 in solution. […] Placebo data is the average of all the placebo subjects in the single dose study (n=10).

LOXL2 [3] = target: T1, LOXL2; test: Human LOXL2 amine oxidase activity assay (Amplex Red); type: biochemical; set-up: expressed in transfected cells; host or cells: CHO cells stably expressing human LOXL2; 10-20x concentrated conditioned media; settings: concentrated conditioned media from CHO cells expressing human LOXL2; 2 h at 37° C. pre-incubation
Method: LOXL2 amine oxidase activity is evaluated by measuring Amplex Red fluorescence using 10-20× concentrated conditioned media from CHO cells stably expressing human LOXL2. To assay for amine oxidase activity, 10 μL of the concentrated conditioned media is incubated with 2 μL of test compound in DMSO and 73 μL Assay Buffer (50 mM Borate Buffer, pH8) for 2 h at 37° C. After the 2 h incubation, 5 μL of 10 mM 1,5-diaminopentane (DAP) diluted in Assay Buffer and 10 μL of Amplex Red Mix (8.5 μL Assay Buffer+0.5 μL of 10 mM Amplex Red+1 μL of 500 U/mL Horseradish Peroxidase) are added and the plate mixed and immediately placed on the FlexStaion for fluorescence measurements. Fluorescence is read in kinetic mode every 2 min for 1 hour at excitation=544 nm and emission=590 nm. The amine oxidase activity is calculated from the slope of the linear portion of the curve.

[4] = 150 mg single oral dose, 24 hour post-dose
[5] = 450 mg single oral dose, 24 hour post-dose
[6] = 1000 mg single oral dose, 24 hour post-dose

Ave plasma Cmpd 2 conc [1, 4]: BLOQ
concentration at 2 h ([1]; 150 mg single oral dose): 966 nM
concentration at 2 h ([1]; 450 mg single oral dose): 4380 nM
concentration at 24 h [1, 5]: 3.5 nM
concentration at 2 h ([1]; 1000 mg single oral dose): 12900 nM
concentration at 24 h [1, 6]: 8 nM
Ave plasma % TE (LOXL2 [2]; 150 mg single oral dose, 2 hour post-dose): 62%
average decrease of free/unbound LOXL2 in plasma (LOXL2 [2]; 150 mg single oral dose, 2 hours post-dosing, healthy subjects): approximately 60%
Ave plasma % TE (LOXL2 [2]; [4]): 20%
Ave plasma % TE (LOXL2 [2]; 450 mg single oral dose, 2 hour post-dose): 78%
Ave plasma % TE (LOXL2 [2]; [5]): −13%
Ave plasma % TE (LOXL2 [2]; 1000 mg single oral dose, 2 hour post-dose): 92%
Ave plasma % TE (LOXL2 [2]; [6]): 1%
IC50 (LOXL2 [2]; plasma samples of healthy volunteers dosed with compound 1-13a, read-out: IC50 of % target engagement versus plasma concentration): 905 nM
IC50 (LOXL2 [3]): < 300 nM
SMILES: NCc1cc(Oc2cccc(C(=O)N3C[C@@H](O)[C@H](F)C3)c2)nc(C(F)(F)F)c1 [Compound 1-13a, (R,R)-trans-(3-((4-(Aminomethyl)-6-(trifluoromethyl)pyridin-2-yl)oxy)phenyl)(3-fluoro-4-hydroxypyrrolidin-1-yl)methanone hydrochloride]

From patent US20190192697A1, “CHEMICAL PROBES OF LYSYL OXIDASK-LIKE 2 AND USES THEREOF” (PHARMAKEA, INC., priority 2016, published 2019)
